Laboratory results as given in US9801925B2, “Potentiation of glucose elimination” (MannKind Corporation, priority 1999, dated 2017).

Experiment: Excretion of FDKP after pulmonary administration of Technosphere particles
Type: in vivo
Text: Technosphere® refers to a diketopiperazine-based drug delivery system which can complex and stabilize peptides in small particles. Diketopiperazines, particularly fumaryl diketopiperazine (FDKP), self-assemble into microparticles with a mean diameter of about 2 microns. In the process it can entrap or complex with peptides, such as insulin, present in the solution during or after self-assembly. Once dried, these microparticles become a suitable composition for pulmonary delivery to the systemic circulation. When administered by the pulmonary route, Technosphere® particles dissolve in the pH neutral environment of the deep lung and facilitate the rapid and efficient absorption of the peptide into systemic circulation.

O=C(O)/C=C/C(=O)NCCCCC1NC(=O)C(CCCCNC(=O)/C=C/C(=O)O)NC1=O (stereo not shown) [FDKP, 3,6-di(fumaryl-4-aminobutyl)-2,5-diketopiperazine]
excretion: excreted un-metabolized in the urine within hours of administration
